pIC50: −log10 of the molar value. Read-outs that look alike come from different tables or passages of the source.
What was measured:
[1] = tested on: nuclear export of the XPO1 cargo protein Rev-GFP in stably transfected U2OS cells; test: Rev-GFP assay (nuclear retention of Rev-GFP); type: cell-based; settings: Homo sapiens
Source text: For this assay we utilized biotinylated LMB (b-LMB) as a tool compound to quantify the amount of XPO1 bound by SINE compounds (Figure 1). b-LMB was synthesized by coupling a biotin tag to LMB. We compared the inhibition of nuclear export and the cytotoxicity of b-LMB to that of the unmodified LMB. […] We then quantified the effects of these compounds on cell death in several cancer cell lines using an MTT cytotoxicity assay (Table 2).
For the typical Rev-GFP assay, U2OS cells stably expressing Rev-GFP [42] were cultured in 96 well plates at 7,500 - 15,000 cells/well. […] After fixation cells were stained with DAPI (Invitrogen) for 10 minutes at room temperature. Cells were imaged with a Nikon fluorescent microscope at 10X magnification and intensity of the GFP and nuclear area were measured and recorded. Cells were scored as either GFP nuclear positive or negative. Number of positive cells were divided by total number of cells in order to calculate percentage of cells with nuclear GFP per well.

XPO1 = biological target: T1, XPO1 (Mus musculus, UniProt Q6P5F9); test: XPO1 occupancy assay in PBMCs from mice dosed orally with selinexor; type: in vivo
T1 construct: the blood from the mice for each dose (n = 4) was pooled and PBMCs were immediately isolated; from tissue; host or cells: PBMCs from pooled blood of orally dosed mice
Experimental: In order to have enough PBMCs to assay, the blood from the mice for each dose (n = 4) was pooled and PBMCs were immediately isolated. Mouse PBMCs were incubated with 1 nM b-LMB for 1.5 hours ex vivo then collected and prepared for the XPO1 occupancy assay.
Using similar conditions, we sought to determine the duration of XPO1 occupancy by SINE compounds in mice. […] The mice were then terminally bled at 4, 24, 36, 48, 60, 72, and 96 hours post dose (n = 4 mice per dose per time point). Blood for each dose at each time point was pooled and PMBCs were isolated. Mouse PBMCs were incubated with 1 nM b-LMB for 1.5 hours ex vivo before being processed for the XPO1 occupancy assay. Both 3 and 10 mg/kg had time-dependent increases in the ratio of free-fraction XPO1, with 50% XPO1 occupancy being sustained for up to 72 hours post-treatment (Figure 5B).
Human donor blood collected in Vacutainer® EDTA tubes (BD) (BioreclamationIVT) was purchased for peripheral blood mononuclear cells (PBMCs) isolation. […] Mouse whole blood was collected in Vacutainer® EDTA tubes (BD) and pooled from each group for each time point. Human and mouse PBMCs were separated by Ficoll (GE Healthcare) gradient. Human PMBCs were cryogenically preserved in Recovery™ Cell Culture Freezing Medium (Gibco). […] Freshly isolated PBMCs from control or selinexor-treated mice were treated ex vivo with 1 nM b-LMB for 1.5 hours prior to collection and processing for the XPO1 occupancy assay.
Cells were collected, washed with PBS, and lysed with RIPA Buffer (Thermo Scientific) with protease inhibitors [Complete Ultra Tablets, Mini, EDTA-free, Easy pack (Roche), PhosStop Easy (Roche)]. A portion of the lysate was reserved (input) while the rest was added to washed Dynabeads MyOne Streptavidin T1 (Invitrogen) with RIPA Buffer. Samples were incubated overnight with constant rotation at 4°C. Beads were then washed 5 times with modified RIPA (150 mM NaCl, 50 mM Tris, 1% NP-40, 0.1% Na deoxycholate, 1 mM EDTA, pH 7.8). The reserved portion of lysates (input) and the beads were each mixed with Protein Simple buffer (Protein Simple), DTT (Invitrogen), and fluorescent standards (Protein Simple), then boiled at 95°C for 10 min. Eluates and inputs were analyzed using a capillary western method (Peggy Sue; Protein Simple) with the following primary antibodies: XPO1 (Santa Cruz) and β-actin (Santa Cruz). Capillary westerns were performed by SBH Sciences (Natick, MA). Peak areas corresponding to the protein molecular weight of XPO1 and actin were compared for sample inputs, while the ratio of XPO1 peak areas in eluate to input (ratio of bound or free-fraction XPO1) versus compound concentration were used in XLFit model 205 to calculate 50% and 90% occupancy curves.

MV-4–11 = test: MTT cytotoxicity assay; type: cell-based; settings: Homo sapiens, MV4-11, read-out: Selinexor IC50 (μM)
HCT-116 = test: MTT cytotoxicity assay; type: cell-based; settings: Homo sapiens
HT1080 resistant = test: MTT cytotoxicity assay; type: cell-based; settings: Homo sapiens, HT-1080, read-out: Selinexor IC50 (μM)
ASPS-KY = test: MTT cytotoxicity assay; type: cell-based; settings: read-out: Selinexor IC50 (μM)
UCH2 = test: MTT cytotoxicity assay; type: cell-based; settings: read-out: Selinexor IC50 (μM)
[2] = single oral dose, 4 hours post-dosing

T1 sequence (Q6P5F9 whole entry): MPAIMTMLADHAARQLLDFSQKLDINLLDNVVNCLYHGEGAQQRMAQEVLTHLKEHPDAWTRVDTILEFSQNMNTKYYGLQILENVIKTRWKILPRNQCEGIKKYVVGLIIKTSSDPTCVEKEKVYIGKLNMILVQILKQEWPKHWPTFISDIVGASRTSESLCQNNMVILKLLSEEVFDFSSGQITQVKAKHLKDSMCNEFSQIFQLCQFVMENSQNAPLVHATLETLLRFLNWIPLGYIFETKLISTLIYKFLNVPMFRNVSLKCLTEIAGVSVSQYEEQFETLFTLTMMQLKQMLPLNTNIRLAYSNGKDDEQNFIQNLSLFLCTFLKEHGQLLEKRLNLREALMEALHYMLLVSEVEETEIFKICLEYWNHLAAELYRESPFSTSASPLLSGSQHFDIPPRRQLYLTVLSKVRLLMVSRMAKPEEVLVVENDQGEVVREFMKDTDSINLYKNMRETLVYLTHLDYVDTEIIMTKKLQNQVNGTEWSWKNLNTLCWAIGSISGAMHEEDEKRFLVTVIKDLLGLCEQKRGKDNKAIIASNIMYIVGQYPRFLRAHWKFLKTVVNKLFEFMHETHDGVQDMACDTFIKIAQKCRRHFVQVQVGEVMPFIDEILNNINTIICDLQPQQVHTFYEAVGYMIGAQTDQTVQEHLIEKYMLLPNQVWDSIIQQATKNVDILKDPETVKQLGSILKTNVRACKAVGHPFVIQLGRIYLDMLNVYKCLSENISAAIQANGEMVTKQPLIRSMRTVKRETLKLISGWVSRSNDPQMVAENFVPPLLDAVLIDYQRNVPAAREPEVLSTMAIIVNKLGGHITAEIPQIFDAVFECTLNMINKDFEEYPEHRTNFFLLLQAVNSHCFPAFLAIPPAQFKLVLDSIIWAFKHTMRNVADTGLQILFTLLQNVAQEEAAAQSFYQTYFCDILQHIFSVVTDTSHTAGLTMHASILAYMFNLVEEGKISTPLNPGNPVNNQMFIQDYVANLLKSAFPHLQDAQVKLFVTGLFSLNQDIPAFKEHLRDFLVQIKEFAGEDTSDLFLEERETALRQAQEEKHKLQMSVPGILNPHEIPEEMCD

## O=C(/C=C\n1cnc(-c2cc(C(F)(F)F)cc(C(F)(F)F)c2)n1)NNc1cnccn1 [Selinexor, selinexor]
[1]; 4 h, read-out: Rev-GFP (nM), U2OS cells stably expressing Rev-GFP, 4 hours treatment
  IC50: 40 nM
[1]; 4 h, read-out: RevGFP Assay IC50 (μM), Rev-GFP U2OS, selinexor 4 hours, 4 hours post washout
  IC50: 20 nM
[1]; read-out: Rev-GFP IC50 (μM), U2OS Rev-GFP cells
  IC50: 40 nM
[1]; read-out: RevGFP Assay IC50 (μM), Rev-GFP U2OS, selinexor 4 hours, 0 hours post washout
  IC50: 10 nM
[1]; read-out: RevGFP Assay IC50 (μM), Rev-GFP U2OS, selinexor 4 hours, 24 hours post washout
  IC50: 500 nM
[1]; read-out: RevGFP Assay IC50 (μM), Rev-GFP U2OS, selinexor 4 hours, 48 hours post washout
  IC50: 1300 nM
[1]; read-out: RevGFP Assay IC50 (μM), Rev-GFP U2OS, selinexor 4 hours, 72 hours post washout
  IC50: 6800 nM
[1]; read-out: RevGFP Assay IC50 (μM), Rev-GFP U2OS, selinexor 4 hours, 96 hours post washout
  IC50: 11400 nM
XPO1; single oral dose of 3 mg/kg
  time at which full saturation of XPO1 was achieved: 4 to 24 h
XPO1; single oral dose of 3 and 10 mg/kg
  time for which 50% XPO1 occupancy is sustained post-treatment: up to 72 hours
XPO1; [2]
  amount of selinexor required to occupy 50% of XPO1: 1.84 mg/kg
  amount of selinexor to achieve 90% XPO1 occupancy: > 10 mg/kg
MV-4–11
  IC50: 0.02 µM
HCT-116; 72 hours, read-out: IC50
  pIC50: 7.30
HCT-116; read-out: Selinexor IC50 (μM), MTT
  IC50: 0.05 µM
HT1080 resistant
  IC50: 2.4 µM
ASPS-KY
  IC50: > 10 µM
UCH2
  IC50: 30 µM
